Assay results published in ChEMBL document CHEMBL3988181, “GlaxoSmithKline Published Kinase Inhibitor Set 2 Onchocerca lienalis Screening Data”.

Assay: GSK PKIS2: Screen against O. lienalis microfilariae, single point, at 3.1uM to assess reduction in motility. Compounds were also tested for cytotoxicity against Rhesus Monkey LLCMK2 cells.
Assay type: functional, Onchocerca lienalis, LLC-MK2
Conditions: CELL_LINE LLCMK2; CELL_SUPPLIER ECACC; CONC 3.1 uM; ORGANISM_SUPPLIER Extracted from peri-umbilical skin obtained from naturally infected cattle in the UK; temperature 37 degree C

Row | SMILES | MOTILITY REDUCTION/CYTOTOXICITY
1 | CCn1c(-c2nonc2N)nc2c(C#CC(C)(C)O)nc(OCCN)cc21 | 0%
2 | C[C@@H](Oc1cc(-n2cnc3cc(-c4ccnc(NCCS(C)(=O)=O)c4)ccc32)sc1C(N)=O)c1ccccc1Cl | 53.4%
3 | CC(C)c1nc(-c2cccc(NS(=O)(=O)c3c(F)cccc3F)c2)c(-c2ccnc(Nc3ccc(N4CCOCC4)nc3)n2)s1 | 0%
4 | CC(C)c1nc(-c2ccc(F)c(NS(=O)(=O)c3c(F)cccc3F)c2)c(-c2ccnc(Nc3ccc(N4CCOCC4)nc3)n2)s1 | 0%
5 | Cc1cccc(Nc2nc(N[C@H]3CCNC3)ncc2C(N)=O)c1 | 26.7%
6 | COc1cccc2c(-c3ccncc3)c(-c3ccc(F)cc3)nn12 | 66.7%
7 | O=c1cc(N2CCOCC2)nc2n(Cc3cccc(F)c3)ccn12 | 0%
8 | Cc1cn2c(=O)cc(N3CCOCC3)nc2n1Cc1cccc(Cl)c1Cl | 0%
9 | Cc1nn2c(=O)cc(N3CCOCC3)nc2n1Cc1cccc(Cl)c1Cl | 0%
10 | Nc1ncc(-c2cn[nH]c2)c2scc(-c3ccc4c(c3)CCN4C(=O)Cc3ccccc3)c12 | 0%
11 | Cc1ccccc1CC(=O)N1CCc2cc(-c3cn(C)c4ncnc(N)c34)ccc21 | 33.4%
12 | Nc1n[nH]c2nnc(-c3ccccc3)c(-c3ccccc3)c12 | 0%
13 | CS(=O)(=O)CCNCc1ccc(-c2ccc3ncnc(Nc4ccc(OCc5ccccc5)c(Cl)c4)c3c2)o1 | 20%
14 | NCC(C(=O)Nc1cc(Br)c(-c2ccnc3[nH]ccc23)s1)c1ccccc1 (stereo unspecified) | 0%
15 | CCCCc1nn2ncccc2c1-c1ccnc(Nc2ccc(N3CCN(C)CC3)cc2)n1 | 13.4%
16 | NC(=O)c1sc(-n2cnc3ccccc32)cc1OCc1ccccc1F | 20%
17 | O=C(NCCNc1ccnc(NCc2ccc(F)cc2)n1)c1cc2ccccc2s1 | 0%
18 | Cc1cc(-c2ccc3c(c2)CC[C@@H](N[C@@H](C)c2ccccc2)C3)cnc1N | 33.4%

Row | SMILES | MOTILITY REDUCTION/CYTOTOXICITY
19 | Cn1cncc1-c1ccc2ncnc(Nc3ccc(OCc4ccccc4)cc3)c2c1 | 0%
20 | COc1cc(Nc2ccnc3cc(-c4ccncc4)ccc23)cc(OC)c1OC | 33.4%
21 | Cc1c(O)cccc1Nc1ccnc2ccc(C(F)(F)F)cc12 | 40%
22 | COc1ccc(Nc2nccc(N3CCC(NC(=O)Nc4cccc(C(C)=O)c4)C3)n2)cc1 (stereo unspecified) | 0%
23 | Oc1cc(Nc2ccnc3cc(I)ccc23)ccc1F | 33.4%
24 | COc1ccc2nc(-c3cccc(C)n3)nc(Nc3ccncc3)c2c1 | 0%
25 | COc1ccc(Nc2nccc(N3CCC(NC(=O)Nc4cccc(OC)c4)C3)n2)cc1 (stereo unspecified) | 0%
26 | COC(=O)c1cccc(NC(=O)NC2CCN(c3ccnc(NCc4ccc(F)cc4)n3)CC2)c1 | 20%
27 | c1ccc(Oc2ccc(Nc3ccnc4ccc(-c5ccccn5)cc34)cc2)cc1 | 0%
28 | COc1ccc(Nc2nccc(N3CCC(NC(=O)Nc4ccc5c(c4)OCO5)C3)n2)cc1 (stereo unspecified) | 20%
29 | NC[C@H](CC1CCCCC1)NC(=O)c1ccc(-c2ccnc3[nH]ccc23)s1 | 66.7%
30 | Cc1cc(-c2ccnc(Nc3cccc(C#N)c3)n2)cc(C)c1O | 0%
31 | COc1ccc(Nc2nccc(N3CCC(NC(=O)c4cccc(C#N)c4)C3)n2)cc1 (stereo unspecified) | 0%
32 | COc1cc(Nc2nccc(N3CCC(NS(=O)(=O)c4ccc(NC(C)=O)cc4)CC3)n2)cc(OC)c1OC | 33.4%
33 | Cc1ccc(C(=O)Nc2ccc(Nc3ccnc4cc(-c5nccs5)ccc34)cc2O)cc1 | 0%
34 | Cc1ccc(Nc2ccnc(Nc3ccc(C)c(F)c3)n2)cc1O | 33.4%
35 | Cc1cc(N2CCC(NS(=O)(=O)c3ccc(F)cc3)CC2)nc(Nc2cccc(C#N)c2)n1 | 0%
36 | CN(C)Cc1ccc(-c2ccc3c(Nc4ccc(Oc5ccccn5)cc4)ccnc3c2)o1 | 0%
